Reference: patent US10538497B2, “Compounds as indoleamine 2,3-dioxygenase inhibitors” (Merck Sharp & Dohme Corp., priority 2015, dated 2020)

What was measured:
IDO1 [1] = target: T1, IDO1 (Homo sapiens (Human), UniProt P14902); assay: IDO1 Enzyme Assay; settings: HIS-tagged recombinant IDO1, 40 nM
IDO1 [2] = target: T1, IDO1; assay: IDO1 Cellular Assay in Hela Cells Stimulated with IFNγ; type: cell-based; settings: Hela cells stimulated with IFNγ 100 ng/mL; read-out: IDO1 HELA Cell Assay, IC50
IDO1 [3] = target: T1, IDO1; assay: IDO1 Cellular Assay in Frozen HEK293 Cells Transiently Transfected with Human IDO1; type: cell-based; settings: read-out: IDO1 HEK293 Cell Assay, IC50
IDO1 [4] = target: T1, IDO1; assay: IDO1 Human Whole Blood Assay; type: cell-based; settings: LPS and IFNγ 100 ng/mL, kynurenine by LC/MS/MS
Experimental: IDO1 Human Whole Blood Assay
LPS and IFNγ was prepared in RPMI to a 10× of final conc. (1000 ng/mL), final concentration is 100 ng/mL.
Human whole blood was drawn in sodium heparin coated tubes from healthy internal donors. Two hundred fourty μL of blood was transferred to each of the wells of a v-bottom 96 well plate. Thirty μL of compound was transferred from intermediate dilution plate, and incubated for 15 min. […] from stimulants was then transferred to blood and mixed thoroughly. Plate was covered with breathable membrane and incubated at 37° C. for overnight (18 h).
On day 2 isotope labeled standard of kunurenine and tryptophan was made in water at 10× concentration and 30 μL was added to the blood at 3 μM final concentration. The assay plates were centrifuged at 300×G for 10 min with no brake to separate plasma from red blood cells. Sixty μL of plasma samples was removed without disturbing red blood cells. Plasma was diluted with RPMI in 1:1 ratio and proteins were precipitated out with two volume of Acetonitrile. The plates was centrifuged at 4000×G for 60 min. Twenty μL of supernatant was carefully transferred to a 384 well plate contain 40 μL of 0.1% formic acid in water and analysed by LC/MS/MS.
LC/MS/MS analyses were performed using Thermo Fisher's LX4-TSQ Quantum Ultra system. This system consists of four Agilent binary high-performance liquid chromatography (HPLC) pumps and a TSQ Quantum Ultra triple quadrupole MS/MS instrument. For each sample, 5 μL were injected onto an Atlantis T3 column column (2.1 mm×150 mm, 3 μm particle size) from Waters. The mobile phase gradient pumped at 0.8 mL/min was used to elute the analytes from the column at 25° C. The elution started at 0% B increasing linearly to 25% B at 6.5 min, holding at 25% for 1 min, re-equilibrating to 10 min. Mobile phase A consisted of 0.1% formic acid in water. Mobile phase B consisted of 0.1% of formic acid in acetonitrile. Data was acquired in positive mode using a HESI interface. The operational parameters for the TSQ Quantum Ultra instrument were a spray voltage of 4000 V, capillary temperature of 380° C., vaporizer temperature 400° C., shealth gas 60 arbitrary units, Aux gas 20 arbitrary units, tube lens 85 and collision gas 1.2 mTorr. SRM chromatograms of kynurenine (Q1: 209.2>Q3:94.0) and internal standard (Q1: 215.3>Q3:98.2) were collected for 90 sec. The peak area was integrated by Xcalibur Quan software. The ratios between the kynurenine generated in the reaction and 2D6-Kynurenine spiked-in internal standard were used to generate percentage inhibition and IC50 values. Compounds were titrated and IC50's were calculated by 4 parameter sigmoidal curve fitting formula.

[5] = HEK293 cells transiently transfected with human IDO1
[6] = read-out: IDO1 Enzyme Assay, IC50

T1 sequence (P14902 whole entry): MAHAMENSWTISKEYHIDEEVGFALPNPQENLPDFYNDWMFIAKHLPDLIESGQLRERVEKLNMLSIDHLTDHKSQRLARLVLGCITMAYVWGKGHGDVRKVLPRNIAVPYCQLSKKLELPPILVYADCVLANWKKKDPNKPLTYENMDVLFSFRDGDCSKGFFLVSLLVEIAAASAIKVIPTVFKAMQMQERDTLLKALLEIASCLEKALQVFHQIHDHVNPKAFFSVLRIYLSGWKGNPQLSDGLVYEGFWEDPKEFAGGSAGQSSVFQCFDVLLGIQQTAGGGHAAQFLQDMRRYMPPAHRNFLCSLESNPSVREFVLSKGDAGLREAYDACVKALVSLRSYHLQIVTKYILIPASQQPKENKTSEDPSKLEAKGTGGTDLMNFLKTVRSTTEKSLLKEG

SMILES	IC50 (IDO1 [1]; IDO1 Enzyme Assay, IC50, nM)	IC50 (IDO1 [2])	IC50 (IDO1 [3]; [5])	IC50 (IDO1 [4])	IC50 (IDO1 [1]; [6])	IC50 (IDO1 [3])
CC(C)(O)C(O)CSc1nonc1/C(=N/O)Nc1ccc(F)c(Cl)c1 (single isomer, unassigned) [Example 189, N-(3-chloro-4-fluorophenyl)-4-[(2,3-dihydroxy-3-methylbutyl)sulfanyl]-N′-hydroxy-1,2,5-oxadiazole-3-carboximidamide]	69.4 nM	0.066 µM	0.0399 µM	0.704 µM		
CC(C)(O)C(O)CSc1nonc1/C(=N/O)Nc1ccc(F)c(Cl)c1 (single isomer, unassigned) [Example 190, N-(3-chloro-4-fluorophenyl)-4-[(2,3-dihydroxy-3-methylbutyl)sulfanyl]-N′-hydroxy-1,2,5-oxadiazole-3-carboximidamide]	79.1 nM	0.111 µM	0.0568 µM	1.39 µM		
OCC(O)CSc1nonc1/C(=N/O)Nc1ccc(F)c(Br)c1 (stereo not drawn) [Example 17, (Z)-N-(3-bromo-4-fluorophenyl)-4-((2,3-dihydroxypropyl)thio)-N′-hydroxy-1,2,5-oxadiazole-3-carboximidamide]		0.0395 µM	0.0425 µM	0.441 µM	34.8 nM	
CC(C)(O)C(O)CSc1nonc1/C(=N/O)Nc1ccc(F)c(Br)c1 (stereo not drawn) [Example 29, N-(3-bromo-4-fluorophenyl)-4-((2,3-dihydroxy-3-methylbutyl)thio)-N′-hydroxy-1,2,5-oxadiazole-3-carboximidamide]	81.3 nM	0.061 µM	0.0236 µM	0.784 µM		
CC(C)(O)C(O)CSc1nonc1/C(=N/O)Nc1ccc(F)c(Br)c1 (stereo not drawn) [Example 30, N-(3-bromo-4-fluorophenyl)-4-((2,3-dihydroxy-3-methylbutyl)thio)-N′-hydroxy-1,2,5-oxadiazole-3-carboximidamide]	85.3 nM	0.0842 µM	0.0294 µM	0.891 µM		
COCCNS(=O)(=O)NCCSc1nonc1/C(=N/O)Nc1ccc(F)c(Br)c1 [Example 31, N-(3-bromo-4-fluorophenyl)-N′-hydroxy-4-((2-((N-(2-methoxyethyl)sulfamoyl)amino)ethyl)thio)-1,2,5-oxadiazole-3-carboximidamide]		0.0374 µM	0.0102 µM	0.643 µM	43.4 nM	
O=c1ccc(CSc2nonc2/C(=N/O)Nc2ccc(F)c(Br)c2)n[nH]1 [Example 35, N-(3-bromo-4-fluorophenyl)-N′-hydroxy-4-(((6-oxo-1,6-dihydropyridazin-3-yl)methyl)thio)-1,2,5-oxadiazole-3-carboximidamide]		0.0646 µM	0.0777 µM	0.923 µM	34.9 nM	
CNc1c(NCCSc2nonc2/C(=N/O)Nc2ccc(F)c(Br)c2)c(=O)c1=O [Example 36, N-(3-bromo-4-fluorophenyl)-N′-hydroxy-4-((2-((2-(methylamino)-3,4-dioxocyclobut-1-en-1-yl)amino)ethyl)thio)-1,2,5-oxadiazole-3-carboximidamide]		0.0948 µM	0.206 µM	7.11 µM		
CC(=O)NCCSc1nonc1/C(=N/O)Nc1ccc(F)c(C#N)c1 [Example 37, N-(2-((4-(N-(3-cyano-4-fluorophenyl)-N′-hydroxycarbamimidoyl)-1,2,5-oxadiazol-3-yl)thio)ethyl)acetamide]		0.0594 µM	0.0831 µM	0.469 µM	104 nM	
N#Cc1cc(N/C(=N\O)c2nonc2SCCNC(=O)C2CC2)ccc1F [Example 40, N-(2-((4-(N-(3-cyano-4-fluorophenyl)-N′-hydroxycarbamimidoyl)-1,2,5-oxadiazol-3-yl)thio)ethyl)cyclopropanecarboxamide]		0.182 µM	0.0921 µM	1.67 µM	76.2 nM	
CNC(=O)CSc1nonc1/C(=N/O)Nc1ccc(F)c(Br)c1 [Example 41, 2-((4-(N-(3-bromo-4-fluorophenyl)-N′-hydroxycarbamimidoyl)-1,2,5-oxadiazol-3-yl)thio)-N-methylacetamide]		0.0176 µM	0.0222 µM	0.15 µM	43.1 nM	
COC(=O)CNP(=O)(CCSc1nonc1/C(=N/O)Nc1ccc(F)c(Br)c1)NCC(=O)OC [Example 44, Dimethyl 2,2′-(((2-((4-(N-(3-bromo-4-fluorophenyl)-N′-hydroxycarbamimidoyl)-1,2,5-oxadiazol-3-yl)thio)ethyl)phosphoryl)bis(azanediyl))(Z)-diacetate]		0.0086 µM	0.0175 µM	0.13 µM	18.1 nM	
CNC(=O)NCCSc1nonc1/C(=N/O)Nc1ccc(F)c(Br)c1 [Example 45, N-(3-bromo-4-fluorophenyl)-N′-hydroxy-4-((2-(3-methylureido)ethyl)thio)-1,2,5-oxadiazole-3-carboximidamide]		0.0477 µM		0.405 µM	22.5 nM	0.0243 µM
O=C1CC[C@@H](CSc2nonc2/C(=N/O)Nc2ccc(F)c(Br)c2)N1 [Example 84, N-(3-bromo-4-fluorophenvl)-N′-hydroxy-4-({[(2S)-5-oxopyrrolidin-2-yl]methyl}sulfanyl)-1,2,5-oxadiazole-3-carboximidamide]		0.0272 µM	0.0331 µM	0.184 µM	37.5 nM	
O=c1cccc(CSc2nonc2/C(=N/O)Nc2ccc(F)c(Br)c2)[nH]1 [Example 86, N-(3-bromo-4-fluorophenyl)-N′-hydroxy-4-{[(6-oxo-1,6-dihydropyridin-2-yl)methyl]sulfanyl}-1,2,5-oxadiazole-3-carboximidamide]		0.0157 µM	0.0416 µM	4.12 µM	32.3 nM	
Cn1c(CSc2nonc2/C(=N/O)Nc2ccc(F)c(Br)c2)n[nH]c1=O [Example 98, N-(3-bromo-4-fluorophenyl)-N′-hydroxy-4-{[(4-methyl-5-oxo-4,5-dihydro-1H-1,2,4-triazol-3-yl)methyl]sulfanyl}-1,2,5-oxadiazole-3-carboximidamide]		0.0571 µM	0.083 µM	0.635 µM	37.8 nM	
Cc1cc(CSc2nonc2/C(=N/O)Nc2ccc(F)c(Br)c2)[nH]c(=O)c1 [Example 102, N-(3-bromo-4-fluorophenyl)-N′-hydroxy-4-{[(4-methyl-6-oxo-1,6-dihydropyridin-2-yl)methyl]sulfanyl}-1,2,5-oxadiazole-3-carboximidamide]		0.0818 µM	0.0444 µM	> 10 µM	72.4 nM	
COC(=O)CNP(=O)(CSc1nonc1/C(=N/O)Nc1ccc(F)c(Br)c1)NCC(=O)OC [Example 120, methyl 6-[({4-[N-(3-bromo-4-fluorophenyl)-N′-hydroxycarbamimidoyl]-1,2,5-oxadiazol-3-yl}sulfanyl)methyl]-3-oxo-2-oxa-5,7-diaza-6-phosphanonan-9-oate 6-oxide]		0.0284 µM	0.0134 µM	0.155 µM	14 nM	
N[C@H](CO)CSc1nonc1/C(=N/O)Nc1ccc(F)c(Br)c1 [Example 125, 4-{[(2R)-2-amino-3-hydroxypropyl]sulfanyl}-N-(3-bromo-4-fluorophenyl)-N′-hydroxy-1,2,5-oxadiazole-3-carboximidamide]		0.131 µM	0.045 µM	0.745 µM	51.9 nM	
O=C(CSc1nonc1/C(=N/O)Nc1ccc(F)c(Br)c1)N[C@@H]1C[C@@H](O)[C@@H](O)C1 [Example 144, 2-({4-[N-(3-bromo-4-fluorophenyl)-N′-hydroxycarbamimidoyl]-1,2,5-oxadiazol-3-yl}sulfanyl)-N-[(1s,3R,4S)-3,4-dihydroxycyclopentyl]acetamide]			0.549 µM	3.99 µM	75.8 nM	
